Experimental data reported in patent publication US20110171328A1, “PHARMACEUTICAL COMPOSITION FOR TREATING DIABETES” (priority 2008, published 2011).

Assays:
α-D-glucosidase = test: Determination of α-D-glucosidase inhibitory activity (PNPG colorimetry at 400 nm); format: biochemical; details: 30 μL inhibitor sample solution in total, from 5 μmol/mL stock solutions, total amount of DNJ and Fag constant, 37° C.
Description: Determination of α-D-glucosidase inhibitory activity of the combination compatibility of 1-deoxynojirimycin and fagomine. 1. Medicines: 1-deoxynojirimycin and fagomine, homemade. 2. Reagents: potassium dihydrogen phosphate, sodium hydroxide, sodium bicarbonate, para-nitrophenyl glucoside (PNPG), reduced glutathione and α-D-glucosidase sucrose. 3. Instrument: TU-1901 UV-Vis spectrophotometer. 4. Test method and results (1) Preparation of potassium phosphate buffer solution: dissolve 0.68120 g of potassium dihydrogen phosphate in 25 mL of distilled water, obtain stock solution 1, dissolve 0.2 g of NaOH in 25 mL of the distilled water, obtain stock solution 2, suck the stock solution 1 (25 mL), add into the stock solution 2 (11.8 mL), shake up, dilute to 100 mL and obtain the potassium phosphate buffer solution. (2) Na2CO[…] solution: […] Take 250 μL of the 1-deoxynojirimycin stock solution, dilute to 1 mL with the distilled water, and obtain the stock solution 1. Take 250 μL of the fagomine stock solution, dilute to 1 mL with the distilled water, and obtain the stock solution 2. […] (9) Determination reaction of α-D-glucosidase inhibitory activity Add the reagents according to the sequence in Table 1 for reaction, determine the absorbance value and calculate the α-glycosidase inhibition ratio of a sample according to the following formula: [formula] […]

[1] = test system: NOD mice with spontaneous hyperglycemia; test: Serum insulin of mice with spontaneous hyperglycemia (radioimmunoassay); format: in vivo; details: for Serum insulin: 1 h after administration at day 14, X ± SD; for Effect on serum insulin of the NOD mice, result in words: 20 mg/kg, 14 days
Procedure: (§1) Impacts of the composition in different doses on blood glucose and serum insulin of mice with spontaneous hyperglycemia
(§2) 1, Medicines: 1-deoxynojirimycin and fagomine, prepared by the inventor. The two are prepared into the required concentrations with distilled water before the test (the sum of the concentrations of the 1-deoxynojirimycin and the fagomine in the composition is the same as the concentration of the fagomine or the 1-deoxynojirimycin which is prepared alone). Glibenclamide is obtained from Hunan Dongting Pharmaceutical Co., Ltd. 2. Animals: NOD mice with the weight of 25-35 g, provided by Experimental Animal Center, Peking University Health Science Center. Determine the blood glucose before the test and select the animals with the blood glucose value of above 11.1 mmol/L for carrying out the test. 3. Determination instrument: Yicheng blood glucose tester, developed by Beijing Yicheng Bioelectronic Technology Co., Ltd. 4. Main reagents: ^125I-insulin radioimmunoassay kit, produced by Department of Isotopes, China Institute of Atomic Energy. 5. Test method and results (1) Impacts on the blood glucose of the mice: determine the blood glucose of the NOD mice after fasting for 6 h, select 70 animals with blood glucose above 11.1 mmol/L, randomly divide into seven groups, respectively carry out intragastric administration and give the following medicines: i) control group (distilled water); ii) glibenclamide group (50 mg/kg); and iii)-v) composition in different mixing ratios (20 mg/kg, with different medicine proportions and constant total amount). Carry out the continuous administration for 14 days, fast for 6 h before the administration at the 14th day, draw blood from the animals 1 h after the administration, use the Yicheng blood glucose tester to determine the blood glucose value of the animals, and determine the serum insulin by radioimmunoassay.

[2] = test system: NOD mice with spontaneous hyperglycemia; test: Blood glucose of mice with spontaneous hyperglycemia after 14 days intragastric administration; format: in vivo; details: for Blood glucose after administration: 1 h after administration at day 14, fasted 6 h, X ± SD; for Blood glucose before administration: n=10, X ± SD
Procedure: as §1, §2

[3] = test system: SD rats with streptozotocin-induced hyperglycemia; test: Blood glucose of rats with streptozotocin-induced hyperglycemia after intragastric sucrose; format: in vivo; details: STZ rats, 60 mg/kg intragastric for 14 days
Procedure: Medicines: 1-deoxynojirimycin-fagomine mixture (2:1), homemade. The mixture is prepared to the required concentration with distilled water before the test. Glucobay is obtained from Bayer Healthcare Co., Ltd. Catechin, ginkgo biloba extract and flavonoids from mulberry leaves were obtained from Hunan Geneham Biomedical Technology Ltd. 2. Animals: SD rats with the weight of 180-220 g, half male and half female, provided by Hunan Institute of Pharmaceutical Industry Research. Modeling method: carry out small dose intravenous injection of 25 mg/kg of streptozotocin on the rats after fasting for 24 h, once a week, simultaneously heat feed for feeding, induce H type diabetes, determine the blood glucose 1 week after the second injection, and select the animals with the fasting blood glucose of above 7.8 mmol/L for carrying out the test. […] Reagents: streptozotocin, product of Sigma Company, USA. Use citric acid buffer solution (PH=4.0) before modeling, and prepare at low temperature; sucrose, analytically pure. […] PLUS blood glucose monitoring meter. […]

[4] = 20 mg/kg intragastric for 14 days
[5] = 50 mg/kg intragastric for 14 days

Compound	α-glycosidase inhibition ratio % (α-D-glucosidase)	Serum insulin [1, 4]	Effect on serum insulin of the NOD mice, result in words [1]	Blood glucose after administration [2, 4]	Blood glucose before administration ([2]; 20 mg/kg intragastric)	Effect on blood glucose of the NOD mice, result in words ([2]; 20 mg/kg, 14 days)	Serum insulin [1, 5]	Blood glucose after administration [2, 5]	Blood glucose before administration ([2]; 50 mg/kg intragastric)	Blood glucose value of rats with hyperglycemia, after administration ([3]; day 14, 1.0 h after 5.0 g/kg sucrose)	Blood glucose value of rats with hyperglycemia, before administration ([3]; day 14, fasted 6 h, before sucrose administration)
OCC1NCC(O)C(O)C1O (stereo not shown) [DNJ]	44%	16.14 ± 2.63 MIU/L	little effect	10.60 ± 2.13 mmol/L	14.20 ± 1.33 mmol/L	significantly reduce the blood glucose	–	–	–	–	–
OC[C@H]1NCC[C@@H](O)[C@@H]1O [Fagomine, fagomine]	21%	21.78 ± 3.34 MIU/L	significantly improve the serum insulin level	12.24 ± 1.62 mmol/L	13.49 ± 1.65 mmol/L	–	–	–	–	–	–
COc1ccc(Cl)cc1C(=O)NCCc1ccc(S(=O)(=O)NC(=O)NC2CCCCC2)cc1 [Glibenclamide]	–	–	–	–	–	–	22.57 ± 3.05 MIU/L	10.57 ± 2.17 mmol/L	13.26 ± 2.26 mmol/L	–	–
Catechin	–	–	–	–	–	–	–	–	–	14.10 ± 1.50 mmol/L	9.17 ± 0.89 mmol/L
